From article PMC9490060, “Synthesis and evaluation of anticancer activity of quillaic acid derivatives: A cell cycle arrest and apoptosis inducer through NF-κB and MAPK pathways” (Frontiers in Chemistry, 2022) come the findings set out here.

In series [1] the test system is HepG2 (human hepatocellular carcinoma cell line). In words: MTT anti-proliferative assay, HepG2. It is filed as cell-based. To be noted: Homo sapiens, HepG2, 48 h incubation, means ± SD, n = 3. The source says: (§1) The anti-proliferative activities against five human cancer cell lines, including HCT116 (human colorectal cancer cell line), MCF-7 (human breast cancer cell line), SW620 (human colorectal cancer cell line), BEL7402 (human hepatocellular carcinoma cell line), and HepG2 (human hepatocellular carcinoma cell line) were established for all the target compounds using the MTT assay.
(§2) The propidium iodide (PI) and Annexin V-FITC apoptosis detection kit were purchased from Invitrogen (Eugene, OR, United States). 3-(4,5-Dimethylthiazol-2-yl)-2,5-diphenyl-2H-tetrazolium bromide (MTT) was purchased from Sigma-Aldrich Co. (St. Louis, MO, United States). All human cell lines were used in this study, colorectal cancer cell HCT116, colorectal cancer cell SW620, breast cancer cell MCF-7, liver hepatocellular carcinoma cell BEL7402, liver hepatocellular carcinoma HepG2 and normal liver cell L02 were initially purchased from American Type Culture Collection (ATCC, Manassas, VA, United States). RPMI-1640 media, Dulbecco’s modified Eagle’s medium (DMEM), and foetal bovine serum (FBS) were provided from Gibco Company (Grand Island, NY, United States). Cell line MCF-7 and HepG2 were cultivated in DMEM containing 10% (v/v) heat-inactivated FBS, 100 units/ml penicillin and […] streptomycin (Grand Island, NY, United States). Cell lines HCT116, BEL7402, SW620, and L02 were cultivated in RPMI 1640 medium containing 10% (v/v) heat-inactivated FBS, 100 units/ml penicillin, and […] streptomycin. The cells were incubated at 37°C under a 5% CO2 and 90% relative humidity (RH) atmosphere.
(§3) Stock solutions were prepared by diluting target compounds in DMSO at concentrations (1.25, 2.5, 5, and 10 mM). The stock solution was then diluted (1.25, 2.5, 5, and 10 μM) with culture medium, and the concentration of DMSO was controlled not to exceed 0.1%.
(§4) Place the cells in a 96-well plate at an appropriate density to ensure exponential growth (1 × 10^4–1.2×10^4 cells per well) throughout the experiment, and then allow the cells to adhere for 24 h. The cells were then treated with continuous concentrations of each compound (1.25, 2.5, 5, and 10 μM) for 48 h. After 48 h of incubation, 15 μl of MTT solution was added to each well, and the final concentration was 2 mg/ml. Then incubate for another 4 h. After incubation, remove the MTT solution and add […] of DMSO to each well for staining. Shake vigorously for 10 min at room temperature to ensure complete dissolution. The optical density (OD) was read on a microplate reader (ELx 800, BioTek, Highland Park, Winooski, VT, United States) with a wavelength of 492 nm, and then the data was analyzed.
A general note: Tetrazolium dyes change colour on reduction, which living cells bring about.

Series [2] relates to HCT116 (human colorectal cancer cell line). In words: MTT anti-proliferative assay, HCT116. In kind it is cell-based. The note with it: Homo sapiens, HCT-116, 48 h incubation, means ± SD, n = 3.
Excerpt: as §1, §2, §3, §4

Series [3] concerns L02 (human normal liver cells). The series is described as follows: Cytotoxicity against normal cell line L02. In kind it is cell-based.
Excerpt: The lack of selectivity between normal and cancer cells is one of the main limitations of antitumor drugs ([Dy and Adjei, 2013]). Therefore, we evaluated the cytotoxicity of compounds B2, and E in normal cell lines L02 (human normal liver cells) to determine the selectivity index (ratio of cytotoxicity in L02 cells compared to that in cancer cells). […] Therefore, this compound was chosen for further biological studies.
as §2, §3, §4

The test system of series [4] is SW620 (human colorectal cancer cell line). The series is described as follows: MTT anti-proliferative assay, SW620. The note with it: Homo sapiens, SW-620, 48 h incubation, means ± SD, n = 3. It is filed as cell-based.
Excerpt: as §1, §2, §3, §4

Series [5] concerns BEL7402 (human hepatocellular carcinoma cell line). In words: MTT anti-proliferative assay, BEL7402. The note with it: Homo sapiens, Bel-7402, 48 h incubation, means ± SD, n = 3. It is filed as cell-based.
Excerpt: as §1, §2, §3, §4

In series [6] the test system is MCF-7 (human breast cancer cell line). In words: MTT anti-proliferative assay, MCF-7. It is filed as cell-based. To be noted: Homo sapiens, MCF7, 48 h incubation, means ± SD, n = 3.
Excerpt: as §1, §2, §3, §4

Broadly, the IC50 is the concentration that gives 50% inhibition. Low values mean greater potency in that assay, high ones weaker potency in that assay. In general, melting point refers to the temperature, or range, at which the solid turns liquid. `CC1(C)CC[C@]2(C(=O)OCc3nnc(-c4ccc(F)cc4)o3)[C@H](O)C[C@]3(C)C(=CC[C@@H]4[C@@]5(C)CC[C@H](O)[C@@](C)(C=O)[C@@H]5CC[C@]43C)[C@@H]2C1` [Compound B2, (5-(4-fluorophenyl)-1,3,4-oxadiazol-2-yl)methyl (4aR,5R,6aS,6bR,8aR,9S,10S,12aR,12bR,14bS)-9-formyl-5,10-dihydroxy-2,2,6a,6b,9,12a-hexamethyl-1,3,4,5,6,6a,6b,7,8,8a,9,10,11,12,12a,12b,13,14b-octadecahydropicene-4a (2H)-carboxylate] showed a melting point of 122 to 124 °C. In addition, the half-maximal inhibitory concentration (IC50) in series [1] worked out at 4.59 ± 1.73 µM. Moreover, in series [2], the IC50 was 3.12 ± 0.87 µM. Moreover, the IC50 in series [3] (Homo sapiens, normal cell line L02) was above 10 µM. Besides, in series [3] (IC50 on normal cells (L02)/IC50 on tumour cells (BEL7402)), the “Selectivity index BEL7402” value is given as above 3.52. Further, the “Selectivity index HCT116” value in series [3] (IC50 on normal cells (L02)/IC50 on tumour cells (HCT116)) is above 3.20. Besides, the “Selectivity index SW620” value in series [3] (IC50 on normal cells (L02)/IC50 on tumour cells (SW620)) is listed as above 1.29. Moreover, the IC50 in series [4] came to 7.75 ± 1.43 µM. In series [5], this compound had a 50% inhibitory concentration (IC50) of 2.84 ± 0.66 µM. The compound further yielded a half-maximal inhibitory concentration (IC50) in series [6] of 3.99 ± 1.28 µM.

Compound `CC1(C)CC[C@]2(C(=O)OCc3cn(-c4ccccc4)nn3)[C@H](O)C[C@]3(C)C(=CC[C@@H]4[C@@]5(C)CC[C@H](O)[C@@](C)(C=O)[C@@H]5CC[C@]43C)[C@@H]2C1` [Compound A1, (1-phenyl-1H-1,2,3-triazol-4-yl)methyl (4aR,5R,6aS,6bR,8aR,9S,10S,12aR,12bR,14bS)-9-formyl-5,10-dihydroxy-2,2,6a,6b,9,12a-hexamethyl-1,3,4,5,6,6a,6b,7,8,8a,9,10,11,12,12a,12b,13,14b-octadecahydropicene-4a (2H)-carboxylate] gave a melting point of 186 to 188 °C. Moreover, the IC50 in series [1] was found to be 8.28 ± 2.1 µM. Moreover, half-maximal inhibition in series [2] (IC50) was put at 3.61 ± 1.01 µM. Besides, the IC50 in series [4] came to 8.96 ± 1.78 µM. Besides, in series [5], the half-maximal inhibitory concentration (IC50) was above 10 µM. Further, the IC50 in series [6] was above 10 µM.

`COc1ccc(-c2nnc(COC(=O)[C@]34CCC(C)(C)C[C@H]3C3=CC[C@@H]5[C@@]6(C)CC[C@H](O)[C@@](C)(C=O)[C@@H]6CC[C@@]5(C)[C@]3(C)C[C@H]4O)o2)cc1` [Compound B4, (5-(4-methoxyphenyl)-1,3,4-oxadiazol-2-yl)methyl (4aR,5R,6aS,6bR,8aR,9S,10S,12aR,12bR,14bS)-9-formyl-5,10-dihydroxy-2,2,6a,6b,9,12a-hexamethyl-1,3,4,5,6,6a,6b,7,8,8a,9,10,11,12,12a,12b,13,14b-octadecahydropicene-4a (2H)-carboxylate] returned a melting point of 126 to 128 °C. Besides, in series [1], the IC50 stood at 8.38 ± 2.22 µM. In series [2], this compound returned a half-inhibitory concentration (IC50) of 3.65 ± 1.06 µM. The compound also displayed an IC50 in series [4] of 7.23 ± 1.56 µM. In series [5], this compound yielded a half-inhibitory concentration (IC50) of 9.15 ± 2.21 µM. In addition, the IC50 in series [6] was above 10 µM.

For the compound `CC1(C)CC[C@]2(C(=O)OCc3cn(-c4ccc(Cl)cc4)nn3)[C@H](O)C[C@]3(C)C(=CC[C@@H]4[C@@]5(C)CC[C@H](O)[C@@](C)(C=O)[C@@H]5CC[C@]43C)[C@@H]2C1` [Compound A3, (1-(4-chlorophenyl)-1H-1,2,3-triazol-4-yl)methyl (4aR,5R,6aS,6bR,8aR,9S,10S,12aR,12bR,14bS)-9-formyl-5,10-dihydroxy-2,2,6a,6b,9,12a-hexamethyl-1,3,4,5,6,6a,6b,7,8,8a,9,10,11,12,12a,12b,13,14b-octadecahydropicene-4a (2H)-carboxylate], the melting point lay in the range of 193 to 194 °C. In series [1], the IC50 is above 10 µM. Also, the IC50 in series [2] is above 10 µM. In series [4], this compound gave an IC50 above 10 µM. Also, in series [5], the IC50 was above 10 µM. This compound also showed a 50% inhibitory concentration (IC50) in series [6] above 10 µM.

Turning to `CC1(C)CC[C@]2(C(=O)OCCn3ncn(-c4ccc(Cl)c(Cl)c4)c3=O)[C@H](O)C[C@]3(C)C(=CC[C@@H]4[C@@]5(C)CC[C@H](O)[C@@](C)(C=O)[C@@H]5CC[C@]43C)[C@@H]2C1` [Compound C4, 2-(4-(3,4-dichlorophenyl)-5-oxo-4,5-dihydro-1H-1,2,4-triazol-1-yl)ethyl (4aR,5R,6aS,6bR,8aR,9S,10S,12aR,12bR,14bS)-9-formyl-5,10-dihydroxy-2,2,6a,6b,9,12a-hexamethyl-1,3,4,5,6,6a,6b,7,8,8a,9,10,11,12,12a,12b,13,14b-octadecahydropicene-4a (2H)-carboxylate], the melting point was 187 to 189 °C. In addition, the half-maximal inhibitory concentration (IC50) in series [1] was above 10 µM. Besides, the IC50 in series [2] is above 10 µM. Also, in series [4], the IC50 was above 10 µM. Also, in series [5], the IC50 was above 10 µM. Further, the IC50 in series [6] was above 10 µM.
